Assay results: patent US9670231B2, “Fused tricyclic amide compounds as multiple kinase inhibitors” (BEIGENE, LTD., priority 2013, dated 2017)

Experiments:
Assay type in all cases: biochemical
C-Raf (Y340D/Y341D) = C-Raf (Y340D/Y341D) (Homo sapiens (Human), UniProt P04049, Y340D/Y341D); test: Raf IC50 assay, TR-FRET, C-Raf (Y340D/Y341D); conditions: 0.1 mM ATP
Experimental: Compounds disclosed herein were tested against B-Raf (V600E) (PV3849, from Invitrogen) or C-Raf (Y340D/Y341D) (PV3805, from Invitrogen) in a time-resolved fluorescence energy transfer assay. The assay was carried out in reactions (10 μL) containing 0.0625 nM B-Raf or 0.5 nM C-Raf, 25 mM Tris pH7.4, 10 mM MgCl2, 0.5 mM EGTA, 0.5 mM Na3VO4, 5 mM beta-glycerophosphate, 0.01% Triton X-100, 2.5 mM DTT, 0.1% BSA, 0.1 mM ATP, 13.7 nM GST-tagged MEK1 (Full-length protein with K97R mutation, recombinant protein purified from bacterial expression system) and 0-5 μM compounds disclosed herein (final concentration of 1% DMSO). The enzyme was incubated with the compounds disclosed herein at room temperature for 60 minutes and the reactions were initiated by the addition of ATP and GST-MEK1. After reaction at room temperature for 60 minutes, an equal volume of stop/detection solution was added according to the manufacture's instruction (CisBio Bioassays). The stop/detection solution contained Eu^3+ cryptate-conjugated anti-phospho MEK1/2 (Ser217/221) rabbit polyclonal antibody and d2-conjugated anti-GST mouse monoclonal antibody in buffer containing 25 mM Tris pH7.4, 400 mM KF, 50 mM EDTA, 0.01% BSA and 0.01% Triton X-100. Plates were sealed and incubated at room temperature for 2 hours, and the TR-FRET signals (ratio of fluorescence emission at 665 nm over emission at 620 nm with excitation at 337 nm wavelength) were recorded on a PHERAstar FS plate reader (BMG Labtech). Phosphorylation of MEK1 led to the binding of anti-phospho-MEK1/2 antibody to GST-MEK1 protein that place fluorescent donor (Eu^3+ crypate) in close proximity to the accepter d2 on the anti-GST antibody, thus resulting in a high degree of fluorescence resonance energy transfer from the donor fluorophore (at 620 nm) to the acceptor fluorophore (at 665 nm). […] The IC50 for each compound was derived from fitting the dose-response % inhibition data to the four-parameter logistic model by Graphpad Prism software.

WT EGFR kinase domain = WT EGFR kinase domain (Homo sapiens (Human), UniProt P00533); test: EGFR enzymatic assay, TR-FRET, WT EGFR
[1] = molecular target: EGFR T790M/L858R kinase domain (Homo sapiens (Human), UniProt P00533, L858R/T790M); test: EGFR enzymatic assay, TR-FRET, EGFR T790M/L858R
B-Raf (V600E) = B-Raf (V600E) (Homo sapiens (Human), UniProt P15056, V600E); test: Raf IC50 assay, TR-FRET, B-Raf (V600E); conditions: 0.1 mM ATP; read-out: IC50 BRAF-V600E
EGFR L858R kinase domain = EGFR L858R kinase domain (Homo sapiens (Human), UniProt P00533, L858R); test: EGFR enzymatic assay, TR-FRET, EGFR L858R
wild type B-Raf = wild type B-Raf (Homo sapiens (Human), UniProt P15056); test: WT BRaf IC50 assay, TR-FRET; conditions: Km ATP ([…] ATP); read-out: IC50 Braf-WT Km ATP
Experimental: WT BRaf IC50 Assay Protocol
Compounds disclosed herein were tested against wild type B-Raf (PV3848, from Invitrogen) in a time-resolved fluorescence energy transfer assay. […] The enzyme was incubated with the compounds disclosed herein at room temperature for 120 minutes and the reactions were initiated by the addition of ATP and GST-MEK1. After incubating at room temperature for 60 minutes, an equal volume of stop buffer containing 25 mM Tris pH7.4, 400 mM KF, 50 mM EDTA, 0.1% BSA, 0.01% Triton X-100, 1 test of Eu3+Cryptate-conjugated rabbit polyclonal antibody anti-Phospho MEK1/2 (Ser217/221) and 1 test of d2-conjugated mouse monoclonal antibody anti-glutathione S-transferase was added to stop the reactions. Plates were sealed and incubated at room temperature for 1.5 hours, and then the TR-FRET signals were read on BMG PHERAstar FS instrument. The IC50 for each compound was calculated by non linear regression by Graphpad Prism software.

Sequence of EGFR L858R kinase domain (P00533 669-1210 L858R): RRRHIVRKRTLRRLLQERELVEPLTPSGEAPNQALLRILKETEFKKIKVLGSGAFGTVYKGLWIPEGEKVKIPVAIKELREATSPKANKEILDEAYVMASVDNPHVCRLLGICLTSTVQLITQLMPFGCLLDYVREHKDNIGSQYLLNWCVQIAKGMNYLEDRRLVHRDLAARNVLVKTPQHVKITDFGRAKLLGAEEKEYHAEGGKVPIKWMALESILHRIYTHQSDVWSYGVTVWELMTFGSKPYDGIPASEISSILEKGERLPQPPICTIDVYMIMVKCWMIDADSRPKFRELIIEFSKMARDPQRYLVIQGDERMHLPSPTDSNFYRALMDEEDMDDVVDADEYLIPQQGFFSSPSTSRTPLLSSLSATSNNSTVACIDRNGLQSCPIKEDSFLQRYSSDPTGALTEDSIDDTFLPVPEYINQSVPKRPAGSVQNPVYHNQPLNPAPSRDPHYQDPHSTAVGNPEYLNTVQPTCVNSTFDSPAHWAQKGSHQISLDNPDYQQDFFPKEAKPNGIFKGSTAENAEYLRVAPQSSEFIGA
Sequence of C-Raf (Y340D/Y341D) (P04049 whole entry Y340D/Y341D): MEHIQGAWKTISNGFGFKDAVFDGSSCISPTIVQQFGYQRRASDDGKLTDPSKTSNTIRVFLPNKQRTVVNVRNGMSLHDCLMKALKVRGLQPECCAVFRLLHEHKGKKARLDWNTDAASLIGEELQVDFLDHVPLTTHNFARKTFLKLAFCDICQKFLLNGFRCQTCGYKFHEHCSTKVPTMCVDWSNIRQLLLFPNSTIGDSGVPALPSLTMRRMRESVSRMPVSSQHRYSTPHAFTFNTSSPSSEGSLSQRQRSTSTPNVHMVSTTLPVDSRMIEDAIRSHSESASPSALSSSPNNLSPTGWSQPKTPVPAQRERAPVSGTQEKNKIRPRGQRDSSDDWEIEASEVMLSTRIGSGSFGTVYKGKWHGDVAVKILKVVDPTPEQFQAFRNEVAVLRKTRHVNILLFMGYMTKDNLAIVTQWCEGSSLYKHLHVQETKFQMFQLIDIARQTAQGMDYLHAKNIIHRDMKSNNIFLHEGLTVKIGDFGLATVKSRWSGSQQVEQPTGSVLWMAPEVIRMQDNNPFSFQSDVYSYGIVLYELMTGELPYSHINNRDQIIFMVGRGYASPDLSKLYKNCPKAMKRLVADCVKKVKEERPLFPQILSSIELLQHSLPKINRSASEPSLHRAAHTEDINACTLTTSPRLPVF
Sequence of B-Raf (V600E) (P15056 whole entry V600E, the tested form may be a part): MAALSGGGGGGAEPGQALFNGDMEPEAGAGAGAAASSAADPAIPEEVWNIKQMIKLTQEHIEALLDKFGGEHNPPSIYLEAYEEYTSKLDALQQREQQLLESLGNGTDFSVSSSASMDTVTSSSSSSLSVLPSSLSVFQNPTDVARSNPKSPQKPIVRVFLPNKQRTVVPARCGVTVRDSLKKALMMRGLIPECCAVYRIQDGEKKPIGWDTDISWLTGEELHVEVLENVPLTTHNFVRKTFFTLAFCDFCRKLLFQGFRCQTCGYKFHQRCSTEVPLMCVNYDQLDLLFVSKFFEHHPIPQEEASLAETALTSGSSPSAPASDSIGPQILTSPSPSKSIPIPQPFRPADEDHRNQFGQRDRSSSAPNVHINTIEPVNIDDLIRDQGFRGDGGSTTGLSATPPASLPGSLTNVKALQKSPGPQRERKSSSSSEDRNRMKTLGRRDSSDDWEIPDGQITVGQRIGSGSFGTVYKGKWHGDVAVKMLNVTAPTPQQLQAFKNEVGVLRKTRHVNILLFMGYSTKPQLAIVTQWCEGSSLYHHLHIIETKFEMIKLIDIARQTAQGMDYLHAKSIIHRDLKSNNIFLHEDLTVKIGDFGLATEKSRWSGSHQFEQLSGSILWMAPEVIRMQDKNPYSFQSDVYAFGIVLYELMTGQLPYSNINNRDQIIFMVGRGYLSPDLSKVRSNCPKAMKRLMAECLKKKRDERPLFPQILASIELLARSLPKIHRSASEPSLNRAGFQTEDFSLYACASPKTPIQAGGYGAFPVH
Sequence of wild type B-Raf (P15056 whole entry): as the sequence (P15056 whole entry V600E, the tested form may be a part) above, with E600V counted along it
Sequence of EGFR T790M/L858R kinase domain (P00533 669-1210 T790M/L858R): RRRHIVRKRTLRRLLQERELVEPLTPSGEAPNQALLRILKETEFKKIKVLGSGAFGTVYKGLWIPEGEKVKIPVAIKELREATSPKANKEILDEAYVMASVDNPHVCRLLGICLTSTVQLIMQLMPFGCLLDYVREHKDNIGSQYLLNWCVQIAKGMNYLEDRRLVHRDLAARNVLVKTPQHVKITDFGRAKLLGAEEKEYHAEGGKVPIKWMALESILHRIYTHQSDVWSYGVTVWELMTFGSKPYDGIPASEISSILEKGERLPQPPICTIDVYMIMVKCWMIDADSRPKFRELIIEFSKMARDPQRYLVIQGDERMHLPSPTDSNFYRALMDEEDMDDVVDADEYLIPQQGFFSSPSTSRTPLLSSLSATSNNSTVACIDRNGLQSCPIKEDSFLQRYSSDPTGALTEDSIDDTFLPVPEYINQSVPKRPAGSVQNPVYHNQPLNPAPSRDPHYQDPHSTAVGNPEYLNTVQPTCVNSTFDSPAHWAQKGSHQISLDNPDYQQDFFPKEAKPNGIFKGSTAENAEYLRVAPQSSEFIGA
Sequence of WT EGFR kinase domain (P00533 669-1210): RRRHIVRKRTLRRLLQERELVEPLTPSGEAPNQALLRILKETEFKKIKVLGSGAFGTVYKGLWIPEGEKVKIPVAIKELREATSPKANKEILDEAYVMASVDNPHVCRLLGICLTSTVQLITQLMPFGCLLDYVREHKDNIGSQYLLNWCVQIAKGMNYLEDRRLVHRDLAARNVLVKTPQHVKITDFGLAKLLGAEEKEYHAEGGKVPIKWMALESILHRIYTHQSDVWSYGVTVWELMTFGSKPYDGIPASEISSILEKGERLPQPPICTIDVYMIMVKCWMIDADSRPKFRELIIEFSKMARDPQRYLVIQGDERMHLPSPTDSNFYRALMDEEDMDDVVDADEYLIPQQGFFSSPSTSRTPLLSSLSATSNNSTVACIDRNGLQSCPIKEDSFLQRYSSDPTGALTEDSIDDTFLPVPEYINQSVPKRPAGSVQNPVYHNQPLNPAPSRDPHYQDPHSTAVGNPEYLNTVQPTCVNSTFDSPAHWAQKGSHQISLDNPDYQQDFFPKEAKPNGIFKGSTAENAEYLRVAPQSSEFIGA

Compound	IC50 (C-Raf (Y340D/Y341D))	IC50 (WT EGFR kinase domain)	IC50 [1]	IC50 (B-Raf (V600E))	IC50 (EGFR L858R kinase domain)	IC50 (wild type B-Raf)
O=C1CCc2c(Oc3ccc4c(c3)[C@H]3[C@H](NC(=O)c5ccc(C(F)(F)F)cc5)[C@H]3O4)ccnc2N1 [Compound 1.40]	0.64 nM	13 nM	84 nM	8.1 nM	12 nM	5.7 nM
CC(C)(C#N)c1cccc(C(=O)N[C@@H]2[C@H]3Oc4ccc(Oc5ccnc6c5CCC(=O)N6)cc4[C@@H]23)c1 [Compound 1.43]	0.34 nM	13 nM	38 nM	4.1 nM	11 nM	4.4 nM
CN(C)[C@H]1CCCN(c2ccc(C(=O)N[C@@H]3[C@H]4Oc5ccc(Oc6ccnc7c6CCC(=O)N7)cc5[C@@H]34)cc2C(F)(F)F)C1 [Compound 1.47, 4-((S)-3-(dimethylamino)piperidin-1-yl)-N-((1S,1aS,6bS)-5-((7-oxo-5,6,7,8-tetrahydro-1,8-naphthyridin-4-yl)oxy)-1a,6b-dihydro-1H-cyclopropa[b]benzofuran-1-yl)-3-(trifluoromethyl)benzamide]	1.2 nM	1.4 nM	6.6 nM	10 nM	0.39 nM	8.5 nM
CN1CCN(c2ccc(C(=O)N[C@@H]3[C@H]4Oc5ccc(Oc6ccnc7c6CCC(=O)N7)cc5[C@@H]34)cc2C(F)(F)F)CC1 [Compound 1.49]	2.6 nM	5.1 nM	38 nM	9.5 nM	4.6 nM	13 nM

Now from value to compound:

IC50 (C-Raf (Y340D/Y341D))	IC50 (WT EGFR kinase domain)	IC50 [1]	IC50 (B-Raf (V600E))	IC50 (EGFR L858R kinase domain)	IC50 (wild type B-Raf)	Compound
2.3 nM	1.8 nM	0.25 nM	16 nM	0.38 nM	15 nM	CCN1CCN(Cc2ccc(C(=O)N[C@@H]3[C@H]4Oc5ccc(Oc6ccnc7c6COC(=O)N7)cc5[C@@H]34)cc2C(F)(F)F)CC1 [Compound 2.1, 4-((4-ethylpiperazin-1-yl)methyl)-N-((1S,1aS,6bS)-5-((2-oxo-2,4-dihydro-1H-pyrido[2,3-d][1,3]oxazin-5-yl)oxy)-1a,6b-dihydro-1H-cyclopropa[b]benzofuran-1-yl)-3-(trifluoromethyl)benzamide]
12 nM	7.1 nM	22 nM	54 nM	4.7 nM	52 nM	CCN1CCN(Cc2ccc(C(=O)N[C@@H]3[C@H]4Oc5ccc(Oc6ccnc(C(=O)NC)c6)cc5[C@@H]34)cc2C(F)(F)F)CC1 [Compound 2.3, 4-(((1S,1aS,6bS)-1-(4-((4-ethylpiperazin-1-yl)methyl)-3-(trifluoromethyl)benzamido)-1a,6b-dihydro-1H-cyclopropa[b]benzofuran-5-yl)oxy)-N-methylpicolinamide]
